Eight molecules from patent publication US20190343828A1, “CAMPTOTHECIN PEPTIDE CONJUGATES” (SEATTLE GENETICS, INC., priority 2018, published 2019) can be followed below.

For experiment [1], the system named is B-lymphocyte cancer cells (U266). Nature of the experiment: In vitro cytotoxicity, CellTiter-Glo 96 h, U266. The settings on record: Homo sapiens, U-266, read-out: Cytotoxic potency as free drug, IC50, U266. For orientation: In ATP-based viability assays light output follows the ATP content of the culture.
Protocol: (§2) In vitro potency was assessed on multiple cancer cell lines. All cell lines were authenticated by STR profiling at IDEXX Bioresearch and cultured for no more than 2 months after resuscitation. Cells cultured in log-phase growth were seeded for 24 hours in 96-well plates containing 150 μl RPMI 1640 supplemented with 20% FBS. Serial dilutions of antibody-drug conjugates in cell culture media were prepared at 4× working concentrations, and 50 μl of each dilution was added to the 96-well plates. Following addition of test articles, cells were incubated with test articles for 4 days at 37° C. After 96 hours, growth inhibition was assessed by CellTiter-Glo® (Promega, Madison, Wis.) and luminescence was measured on a plate reader.
(§3) Cell viability was determined by CellTiter-Glo staining after 96 h exposure to ADC. […] Ag1 is an antibody targeting a ubiquitous and readily internalizable antigen on cancer cells, Ag2 is cAC10 antibody targeting CD30(+) cancer cells, Ag3 is h1F6 antibody targeting CD70(+) cancer cells, Ag4 is hMEM102 antibody targeting CD48(+) cancer cells, Ag5 is h20F3 antibody targeting NTB-A expressing cancer cells, and h00 is a non-binding control antibody.
Experiment [2] concerns renal carcinoma cells (786-O). Put plainly: In vitro cytotoxicity, CellTiter-Glo 96 h, 786-O. The settings on record: Homo sapiens, 786-0, read-out: Cytotoxic potency (IC50 class), 786-O.
Protocol: as §2
(§4) Cell viability was determined by CellTiter-Glo staining after 96 h exposure to ADC.
Experiment [3] deals with pancreatic cancer cells (BxPC3). Put plainly: In vitro cytotoxicity, CellTiter-Glo 96 h, BxPC3. The settings on record: Homo sapiens, BXPC-3, read-out: Cytotoxic potency (IC50 class), BxPC3.
Experiment [4] concerns acute promyelocytic leukemia cells (HL-60). Put plainly: In vitro cytotoxicity, CellTiter-Glo 96 h, HL-60. The settings on record: Homo sapiens, HL-60, read-out: Cytotoxic potency (IC50 class), HL-60.
The test system of experiment [5] is multiple myeloma cells (MM.1R). Nature of the experiment: In vitro cytotoxicity, CellTiter-Glo 96 h, MM.1R. The conditions noted are these: read-out: Cytotoxic potency (IC50 class), MM.1R.
Protocol: as §2, §3
Experiment [6] has as its system Burkitt's lymphoma cells (Ramos). Nature of the experiment: In vitro cytotoxicity, CellTiter-Glo 96 h, Ramos. The conditions noted are these: Homo sapiens, read-out: Cytotoxic potency as free drug, IC50, Ramos.
Protocol: as §2, §4
Experiment [7] has as its system Hodgkin's lymphoma cells (L540cy). Put plainly: In vitro cytotoxicity, CellTiter-Glo 96 h, L540cy. The settings on record: read-out: Cytotoxic potency (IC50 class), L540cy.
In experiment [8] the test system is acute myeloid leukemia cells (MOLM13). Put plainly: In vitro cytotoxicity, CellTiter-Glo 96 h, MOLM13. The settings on record: Homo sapiens, MOLM-13, read-out: Cytotoxic potency as free drug, IC50, MOLM13.
Protocol: as §2, §4
Experiment [9] has as its system multiple drug resistant acute promyelocytic leukemia cells (HL-60/RV). Put plainly: In vitro cytotoxicity, CellTiter-Glo 96 h, HL60/RV. The conditions noted are these: Homo sapiens, HL-60, read-out: Cytotoxic potency (IC50 class), HL60/RV.
Protocol: as §2, §4
Experiment [10] has as its system melanoma cells (SK-MEL-5). Put plainly: In vitro cytotoxicity, CellTiter-Glo 96 h, SK-MEL-5. The conditions noted are these: Homo sapiens, SK-MEL-5, read-out: Cytotoxic potency as free drug, IC50, SK-MEL-5.
In experiment [11] the test system is B-lymphocyte cancer cells (SU-DHL-4). Put plainly: In vitro cytotoxicity, CellTiter-Glo 96 h, SU-DHL-4. The conditions noted are these: Homo sapiens, SU-DHL-4, read-out: Cytotoxic potency as free drug, IC50, SU-DHL-4.
The test system of experiment [12] is CD30+ parental DEL lymphoma cell line. Put plainly: In vitro cytotoxicity, CellTiter-Glo 96 h, DEL. It is filed as cell-based. The conditions noted are these: Table 2, CD30+ parental DEL. On the procedure: (§1) The parental DEL lymphoma cell line was cultured in the presence of brentuximab vedotin to induce over-expression of the MDR phenotype, resulting in the DEL brentuximab vedotin resistant line (DEL-BVR). Brentuximab vedotin, which is Ag2-vc-MMAE (DAR=4) was included as a control. Ex_4-1 refers to MP-PEG4-VKG-7-MAD-MDCPT.

Experiment [13] concerns CD30/MDR+ DEL-BVR cell line (DEL brentuximab vedotin resistant). Nature of the experiment: In vitro cytotoxicity, CellTiter-Glo 96 h, DEL-BVR. It is filed as cell-based. The conditions noted are these: Table 2, CD30/MDR+ DEL-BVR. On the procedure: as §1
Where [14] appears, read: 1000 ng/mL, relative to untreated cells.
[15] abbreviates: DAR in parenthesis of label, 96 h.

pIC50: −log10 of the molar value. Some results are limits rather than exact numbers.

As to `CC[C@@]1(O)C(=O)OCc2c1cc1n(c2=O)Cc2c-1nc1cc3c(cc1c2CC(C)(C)C)OCO3` [Compound 6n], the pIC50 in experiment [1] was 8.00 to 9.00; in experiment [2], 8.00 to 9.00; in [3] it was 8.00 to 9.00; in experiment [4] it was 7.00 to 8.00; in experiment [5] it was 8.00 to 9.00; in experiment [6], 8.00 to 9.00. In addition, the pIC50 in [7], in experiment [8], in experiment [9], in [10] and in experiment [11] was 8.00 to 9.00 throughout.
Turning to `CC[C@@]1(O)C(=O)OCc2c1cc1n(c2=O)Cc2cc3cc4c(cc3nc2-1)OCO4` [Compound 6o], the pIC50 in experiment [1] was 8.00 to 9.00; in experiment [2] it was 8.00 to 9.00; in experiment [3], 8.00 to 9.00; in experiment [4] it was 6.00 to 7.00; in experiment [5], 8.00 to 9.00; in [6], 9.00 to 10.00. The pIC50 in experiment [7] is 8.00 to 9.00; in experiment [8], 7.00 to 8.00; in experiment [9] it was 7.00 to 8.00; in experiment [10] it was 8.00 to 9.00; in [11] it was 8.00 to 9.00.
Consider `CC[C@@]1(O)C(=O)OCc2c1cc1n(c2=O)Cc2c-1nc1cc3c(cc1c2C)OCO3` [Compound 6p], for which the pIC50 in experiment [1] was 9.00 to 10.00; in [2] it was 9.00 to 10.00; in experiment [3] it was 9.00 to 10.00; in [4] it was 7.00 to 8.00; in experiment [5], 9.00 to 10.00; in experiment [6], 9.00 to 10.00. Besides, the pIC50 is 9.00 to 10.00 in [7]; 8.00 to 9.00 in experiment [8]; 8.00 to 9.00 in [9]; 9.00 to 10.00 in experiment [10]; 9.00 to 10.00 in experiment [11].
Consider `CC[C@@]1(O)C(=O)OCc2c1cc1n(c2=O)Cc2c-1nc1cc(F)c(C)c3c1c2[C@@H](NC(=O)CO)CC3` [Compound 8a], for which the pIC50 was 7.00 to 8.00 in [1]; 8.00 to 9.00 in [2]; 7.00 to 8.00 in [3]; 6.00 to 7.00 in experiment [4]; 8.00 to 9.00 in [5]; 8.00 to 9.00 in experiment [6]. The pIC50 is 8.00 to 9.00 in experiment [7]; 7.00 to 8.00 in experiment [8]; 7.00 to 8.00 in experiment [9]; 7.00 to 8.00 in experiment [10]; 8.00 to 9.00 in experiment [11].
With `CC[C@@]1(O)C(=O)OCc2c1cc1n(c2=O)Cc2c-1nc1cc(F)c(C)c3c1c2[C@@H](N)CC3` [Compound 8b], the pIC50 in experiment [1] is 8.00 to 9.00; in experiment [2], 8.00 to 9.00; in experiment [3] it was 8.00 to 9.00; in experiment [4], 7.00 to 8.00; in [5], 8.00 to 9.00; in [6], 9.00 to 10.00. Besides, the pIC50 in [7] is 8.00 to 9.00; in experiment [8] it was 7.00 to 8.00; in [9] it was 7.00 to 8.00; in experiment [10], 8.00 to 9.00; in experiment [11], 8.00 to 9.00.
Consider `CC[C@@]1(O)C(=O)OCc2c1cc1n(c2=O)Cc2c-1nc1cc3c(cc1c2CO)OCO3` [Compound 8c], for which the pIC50 was 8.00 to 9.00 in [1]; 8.00 to 9.00 in experiment [2]; 8.00 to 9.00 in [3]; 7.00 to 8.00 in experiment [4]; 8.00 to 9.00 in [5]; 9.00 to 10.00 in [6]. Also, the pIC50 in experiment [7] is 9.00 to 10.00; in experiment [8], 8.00 to 9.00; in [9], 8.00 to 9.00; in experiment [10] it was 8.00 to 9.00; in [11], 9.00 to 10.00.
Turning to `CCc1c2c(nc3ccc(O)cc13)-c1cc3c(c(=O)n1C2)COC(=O)[C@]3(O)CC` [Compound 8d], the pIC50 in experiment [1] is 8.00 to 9.00; in experiment [2] it was 8.00 to 9.00; in [3], 8.00 to 9.00; in experiment [4] it was 8.00 to 9.00; in experiment [5], 8.00 to 9.00; in [6] it was 7.00 to 8.00. The pIC50 in experiment [7] was 7.00 to 8.00; in [8] it was 8.00 to 9.00; in experiment [9], 7.00 to 8.00; in [10], 8.00 to 9.00; in experiment [11], 8.00 to 9.00.
As to “Brentuximab vedotin [Ag2-vcMMAE (4), reference compound]”, the “percent cells remaining at highest concentration tested, DEL” value in [12] (setting [14]) is recorded as “(1) percent”. The “IC50, DEL” value in [12] (setting [15]) is 0.0005 µg/mL. In experiment [13] (setting [14]), the “percent cells remaining at highest concentration tested, DEL-BVR” value is given as “(93) percent”. Also, the “IC50, DEL-BVR” value in experiment [13] (setting [15]) was above 1 µg/mL.
